Test results taken from PubChem BioAssay AID256 (DTP/NCI, 2004).
Inconclusive results and toxic doses are left out. Rule for the calls: active = survival T/C of 150% or more; inactive = T/C below 125% in these data.

Tested on: CD2F1 mice, L1210 leukemia ip, survival T/C
Test: NCI In Vivo Anticancer Drug Screen. Data for tumor model L1210 Leukemia (intraperitoneal) in CD2F1 (CDF1) mice
Settings: endpoint: mean survival time, higher = longer survival
Summary of the method: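 Implant tumor; dose compound or vehicle; measure endpoint in both groups; report treated divided by control.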

[1] = dose: 100.0 mg/kg/injection, schedule: Q04DX003 (ip), vehicle: saline with Tween-80
[2] = dose: 200.0 mg/kg/injection, schedule: Q04DX003 (ip), vehicle: saline with Tween-80
[3] = dose: 400.0 mg/kg/injection, schedule: Q04DX003 (ip), vehicle: saline with Tween-80
[4] = dose: 50.0 mg/kg/injection, schedule: Q01DX009 (ip), vehicle: saline with Tween-80
[5] = dose: 100.0 mg/kg/injection, schedule: Q01DX009 (ip), vehicle: saline with Tween-80
[6] = dose: 200.0 mg/kg/injection, schedule: Q01DX009 (ip), vehicle: saline with Tween-80
[7] = dose: 50.0 mg/kg/injection, schedule: Q04DX002 (ip), vehicle: saline with Tween-80
[8] = dose: 100.0 mg/kg/injection, schedule: Q01DX001 (ip), vehicle: saline with Tween-80
[9] = dose: 100.0 mg/kg/injection, schedule: Q04DX002 (ip), vehicle: saline with Tween-80
[10] = dose: 200.0 mg/kg/injection, schedule: Q01DX001 (ip), vehicle: saline with Tween-80
[11] = dose: 200.0 mg/kg/injection, schedule: Q04DX002 (ip), vehicle: saline with Tween-80
[12] = dose: 400.0 mg/kg/injection, schedule: Q01DX001 (ip), vehicle: saline with Tween-80
[13] = dose: 400.0 mg/kg/injection, schedule: Q04DX002 (ip), vehicle: saline with Tween-80
[14] = dose: 25.0 mg/kg/injection, schedule: Q01DX009 (ip), vehicle: Klucel (hydroxypropylcellulose) (HPC)
[15] = dose: 50.0 mg/kg/injection, schedule: Q01DX009 (ip), vehicle: Klucel (hydroxypropylcellulose) (HPC)
[16] = dose: 100.0 mg/kg/injection, schedule: Q01DX009 (ip), vehicle: Klucel (hydroxypropylcellulose) (HPC)

Measured: T/C

COC(=O)c1ccc(N(C)C/C(CN2C(=O)c3ccccc3C2=O)=N\O)cc1
inactive: dose: 75.0 mg/kg/injection, schedule: Q01DX001 (ip), vehicle: other 92 % of control | dose: 150.0 mg/kg/injection, schedule: Q01DX001 (ip), vehicle: other 106 % of control

C=CCNc1n[nH]c(=S)s1
inactive: [1] 100 % of control | [2] 96 % of control | [3] 105 % of control

COc1ccc2c(O)c(Cc3ccccc3)c(=O)oc2c1
inactive: [4] 112 % of control | [5] 103 % of control | [6] 103 % of control

Cc1nnc(-c2ccccc2)c(-c2ccccc2)n1
inactive: [7] 103 % of control | [8] 93 % of control | [9] 98 % of control | [10] 95 % of control | [11] 95 % of control | [12] 91 % of control

CCCCCCCCCCCSSCCCCCCCCCCC
inactive: dose: 100.0 mg/kg/injection, schedule: Q01DX009 (ip), vehicle: other 101 % of control | dose: 200.0 mg/kg/injection, schedule: Q01DX009 (ip), vehicle: other 100 % of control | dose: 400.0 mg/kg/injection, schedule: Q01DX009 (ip), vehicle: other 111 % of control

CCC12CCC(=O)C=C1CCCC2=O (configuration not stated)
inactive: dose: 100.0 mg/kg/injection, schedule: Q04DX003 (ip), vehicle: saline sonified 95 % of control

CC1=Nc2cc(Cl)c(Cl)cc2N(C)/C1=C/C1=C(Cl)C(=O)c2cc3c(Cl)ccc(Cl)c3cc2C1=O
inactive: [1] 94 % of control | [2] 97 % of control

CNc1nc2cc(C)c(C)cc2n1C1OC(CO)C(O)C1O (configuration not stated)
inactive: dose: 75.0 mg/kg/injection, schedule: Q01DX001 (ip), vehicle: saline 111 % of control | dose: 150.0 mg/kg/injection, schedule: Q01DX001 (ip), vehicle: saline 103 % of control | dose: 300.0 mg/kg/injection, schedule: Q01DX001 (ip), vehicle: saline 108 % of control

NNC(=O)c1ccc(O)cc1
inactive: [8] 90 % of control | [10] 94 % of control | [12] 96 % of control

Nc1cc(=O)[nH]c(=S)[nH]1
inactive: [9] 97 % of control | [11] 105 % of control

CC1SC(=S)N(c2ccccc2)C1=O (configuration not stated)
inactive: [1] 112 % of control | [2] 97 % of control | [3] 101 % of control

Cc1cc(OCCOC(=O)Nc2c(Cl)cccc2Cl)cc(C)c1Cl
inactive: [4] 92 % of control | [5] 100 % of control | [6] 107 % of control

O=C(OCC1OC(n2cc[n+]([O-])nc2=O)C(OC(=O)c2ccccc2)C1OC(=O)c1ccccc1)c1ccccc1 (configuration not stated)
inactive: dose: 25.0 mg/kg/injection, schedule: Q01DX005 (ip), vehicle: other 90 % of control | dose: 50.0 mg/kg/injection, schedule: Q01DX005 (ip), vehicle: other 101 % of control | dose: 100.0 mg/kg/injection, schedule: Q01DX005 (ip), vehicle: other 104 % of control | dose: 200.0 mg/kg/injection, schedule: Q01DX005 (ip), vehicle: other 122 % of control | dose: 400.0 mg/kg/injection, schedule: Q01DX005 (ip), vehicle: other 113 % of control

Cc1c(Cl)cccc1NC(=O)/C=C/c1ccccc1
inactive: [9] 94 % of control | [11] 102 % of control | [13] 94 % of control

CCCCCCC(=O)CCCCCCCCCCCCC(=O)OC
inactive: [1] 95 % of control | [2] 97 % of control | [3] 93 % of control

O=C(OCC1OC(n2cnc(=O)[nH]c2=O)C(OC(=O)c2ccccc2)C1OC(=O)c1ccccc1)c1ccccc1 (configuration not stated)
inactive: dose: 1.25 mg/kg/injection, schedule: Q04DX003 (ip), vehicle: saline 96 % of control | dose: 2.5 mg/kg/injection, schedule: Q04DX003 (ip), vehicle: saline 101 % of control | dose: 5.0 mg/kg/injection, schedule: Q04DX003 (ip), vehicle: saline 98 % of control | dose: 10.0 mg/kg/injection, schedule: Q04DX003 (ip), vehicle: saline 101 % of control | dose: 20.0 mg/kg/injection, schedule: Q04DX003 (ip), vehicle: saline 98 % of control | dose: 40.0 mg/kg/injection, schedule: Q04DX003 (ip), vehicle: saline 98 % of control

C/C(=N/NC(=O)CC#N)c1ccccc1
inactive: dose: 25.0 mg/kg/injection, schedule: Q01DX009 (ip), vehicle: saline with Tween-80 98 % of control | [4] 98 % of control | [5] 98 % of control

CC(=O)Oc1ccc2c3c(ccc2c1)CCCC3
inactive: [14] 116 % of control | [15] 93 % of control | [16] 104 % of control

O=P(OCCCO)(N1CC1)N1CC1
inactive: dose: 25.0 mg/kg/injection, schedule: Q01DX001 (ip), vehicle: other 101 % of control | dose: 50.0 mg/kg/injection, schedule: Q01DX001 (ip), vehicle: other 101 % of control | dose: 100.0 mg/kg/injection, schedule: Q01DX001 (ip), vehicle: other 102 % of control | dose: 200.0 mg/kg/injection, schedule: Q01DX001 (ip), vehicle: other 98 % of control | dose: 400.0 mg/kg/injection, schedule: Q01DX001 (ip), vehicle: other 96 % of control

O=C(COc1ccc(F)cc1F)OC(=O)COc1ccc(F)cc1F
inactive: [9] 92 % of control | [11] 89 % of control | [13] 89 % of control

C=C1C(=O)OC2CC1C(OC(=O)/C=C/c1ccccc1)C/C(C)=C/CC/C(C)=C/CCC2(C)O (configuration not stated)
inactive: dose: 12.5 mg/kg/injection, schedule: Q01DX009 (ip), vehicle: Klucel (hydroxypropylcellulose) (HPC) 96 % of control | [14] 98 % of control | [15] 98 % of control | [16] 102 % of control

COC(=O)C(C)=O
inactive: dose: 100.0 mg/kg/injection, schedule: Q04DX003 (ip), vehicle: saline 97 % of control | dose: 200.0 mg/kg/injection, schedule: Q04DX003 (ip), vehicle: saline 100 % of control | dose: 400.0 mg/kg/injection, schedule: Q04DX003 (ip), vehicle: saline 102 % of control

CCN(CC)c1cc(Cl)ccc1C
inactive: dose: 12.5 mg/kg/injection, schedule: Q04DX002 (ip), vehicle: saline with Tween-80 98 % of control | dose: 25.0 mg/kg/injection, schedule: Q04DX002 (ip), vehicle: saline with Tween-80 95 % of control | [7] 98 % of control | dose: 100.0 mg/kg/injection, schedule: Q01DX001 (ip), vehicle: saline sonified 101 % of control | dose: 200.0 mg/kg/injection, schedule: Q01DX001 (ip), vehicle: saline sonified 95 % of control | dose: 400.0 mg/kg/injection, schedule: Q01DX001 (ip), vehicle: saline sonified 86 % of control

CCOC(=O)C1(C(=O)OCC)COC(C)(C)OC1
inactive: dose: 100.0 mg/kg/injection, schedule: Q01DX009 (ip), vehicle: saline 93 % of control | dose: 200.0 mg/kg/injection, schedule: Q01DX009 (ip), vehicle: saline 94 % of control | dose: 400.0 mg/kg/injection, schedule: Q01DX009 (ip), vehicle: saline 94 % of control

CC(C)(C)CC(C)(C)c1ccc(O)c(O)c1
inactive: dose: 25.0 mg/kg/injection, schedule: Q04DX003 (ip), vehicle: saline with Tween-80 101 % of control | dose: 50.0 mg/kg/injection, schedule: Q04DX003 (ip), vehicle: saline with Tween-80 93 % of control | [1] 96 % of control

CCc1ccc(NC(=O)c2ccccc2C(=O)O)cc1
inactive: [5] 102 % of control | [1] 101 % of control | [6] 98 % of control | [2] 97 % of control | dose: 400.0 mg/kg/injection, schedule: Q01DX009 (ip), vehicle: saline with Tween-80 105 % of control | [3] 97 % of control

NC(=O)c1cc([N+](=O)[O-])ccc1NN=NCCCl
active: dose: 50.0 mg/kg/injection, schedule: Q01DX001 (ip), vehicle: Klucel (hydroxypropylcellulose) (HPC) 150 % of control | dose: 100.0 mg/kg/injection, schedule: Q01DX001 (ip), vehicle: Klucel (hydroxypropylcellulose) (HPC) 183 % of control | dose: 200.0 mg/kg/injection, schedule: Q01DX001 (ip), vehicle: Klucel (hydroxypropylcellulose) (HPC) 231 % of control
inactive: dose: 25.0 mg/kg/injection, schedule: Q01DX001 (ip), vehicle: Klucel (hydroxypropylcellulose) (HPC) 112 % of control

CCOC(=O)c1c(C)[nH]c(C)cc1=O
inactive: dose: 100.0 mg/kg/injection, schedule: Q04DX002 (ip), vehicle: saline 103 % of control | dose: 200.0 mg/kg/injection, schedule: Q04DX002 (ip), vehicle: saline 108 % of control

N#C/C(=C\c1ccc(-c2ccccc2)cc1)c1ccc(Cl)cc1
inactive: [2] 87 % of control
